Reference: patent publication US8153630B2, “Kinase inhibitors” (Miikana Therapeutics, Inc., priority 2004, dated 2012)

Assays:
[1] = target: Aurora B kinase (Homo sapiens, UniProt Q96GD4); assay: Aurora B (Aurora 1) inhibition assay; format: biochemical; details: compound concentration 100 μM; ATP 50 μM, 16 h; read-out: inhibition of the Aurora B enzyme
[2] = target: T1, recombinant Aurora A (Homo sapiens, UniProt O14965); assay: PanVera Z'-Lyte Aurora kinase assay; format: biochemical; details: Z'-Lyte Ser/Thr 1 peptide 2 μM, ATP 10 μM, 1 h
T1 construct: purchased Upstate, Lake Placid, N.Y
T1 sequence (O14965 1-403): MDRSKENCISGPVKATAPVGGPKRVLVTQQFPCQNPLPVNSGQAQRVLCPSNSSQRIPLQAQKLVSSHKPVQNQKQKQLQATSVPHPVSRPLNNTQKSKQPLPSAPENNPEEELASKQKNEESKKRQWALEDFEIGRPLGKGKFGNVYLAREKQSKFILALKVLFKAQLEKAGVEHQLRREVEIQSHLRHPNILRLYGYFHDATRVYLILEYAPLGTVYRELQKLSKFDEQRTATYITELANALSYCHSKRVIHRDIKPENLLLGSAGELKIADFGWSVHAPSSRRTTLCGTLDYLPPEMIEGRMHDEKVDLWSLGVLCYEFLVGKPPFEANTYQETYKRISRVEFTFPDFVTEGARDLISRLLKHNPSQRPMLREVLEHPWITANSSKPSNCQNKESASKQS
Experimental: Compounds 7-14 above were tested for their potency against recombinant Aurora A (Upstate, Lake Placid, N.Y.) using the PanVera Z'-Lyte kinase assay kit—Ser/Thr 1 peptide (Invitrogen, Carlsbad, Calif.). Assays were carried out in kinase assay buffer (50 mM HEPES, pH 7.5, 10 mM MgCl2, 5 mM EGTA, 0.05% Brij-35, 2 mM DTT). Test compounds were initially dissolved in DMSO at 100× the highest tested concentration, then serially diluted to 4× test concentrations in kinase assay buffer. Next, Aurora A (final concentration 200-500 ng/mL), Z′-Lyte Ser/Thr 1 peptide (final concentration 2 μM) and ATP (final concentration 10 μM) were added according to the manufacturer's instructions. Assays were carried out in half-area 96-well white polystyrene assay plates (Corning, Corning, N.Y.) in a final volume of 20 μL. The reaction was allowed to proceed for 1 h at room temperature in the dark, at which point the development reagent and stop reagent were added according to the manufacturer's instructions. Coumarin (Ex. 400 nm, Em. 465 nm) and fluorescein (Ex. 400 nm, Em. 565 nm) fluorescence values were measured on a SpectraFluor Plus plate reader (Tecan, Durham, N.C.). The emission ratio (coumarin/fluorescein) was determined and used to calculate the percent phosphorylation for each well. Wells containing substrate but no kinase and wells containing a phosphopeptide control were used to set 0% and 100% phosphorylation values, respectively. Typically 20-40% of the substrate was phosphorylated in wells without inhibitor. Dose-response curves of relative Aurora A activity vs. inhibitor concentration were plotted with Grafit (Erithacus Software, Horley, Surrey, UK) and used to calculate IC50 values.

[3] = system: HCT 116 Cells; assay: Aurora kinase whole cell cytotoxicity assay: Sulforhodamine B; format: cell-based; details: Homo sapiens, HCT116, SRB staining, 96 hours incubation
Experimental: Human tumour-derived cell lines, HCT116 or MCF7 (ATCC) were plated in a 96 well plate in DMEM containing 10% fetal bovine serum and 2 mM L-glutamine at a density of 500 HCT116 cells or 1,000 MCF7 cells per well and incubated at 37° C., 5% CO2, for 24 hours prior to the addition of experimental compounds. Compounds were added using the dilution series indicated to duplicate plates and the cells were incubated in media plus compound for 96 hours. An additional plate was fixed in 10% TCA at the time of the addition of compound to provide a measurement of the cell population at time zero, the time of drug addition. Following the 96 hour incubation, cells were fixed in situ by gently aspirating off the culture media and then adding 50 ul of ice cold 10% TCA per well and incubation at 4° C. for 60 minutes. The plates were washed with tap water five times and allowed to air dry for 5 minute. 50 ul of a 0.4% (w/v) Sulforhodamine B solution in 1% (v/v) acetic acid was added per well and the cells were incubated for 30 minutes at room temperature. Following staining, plates were washed four times with 1% acetic acid to remove any unbound dye and then allowed to air dry for 5 minutes. The stain was solubilized with 100 ul of 10 mM Tris pH 10.5 per well and placed on an orbital rotator for 5 minutes. The absorbance was read at 570 nm. Percentage growth was calculated using the absorbance readings from the time zero plate (Tz) and the dilution series plate […] which included a column of cells grown in media without compound as a control (C) using the formulas: [(Ti−Tz)/(C−Tz)]×100 for concentrations for which Ti>/=Tz [(Ti−Tz)/Tz]×100 for concentrations for which Ti<Tz.
Three dose response parameters were calculated for each experimental agent. Growth inhibition of 50% (GI50) was calculated from [(Ti−Tz)/(C−Tz)]×100=50, which was the drug concentration resulting in a 50% reduction in the net protein increase (as measured by SRB staining) in control cells during the drug incubation. The drug concentration resulting in total growth inhibition (TGI) was calculated from Ti=Tz. The LC50 (concentration of drug resulting in a 50% reduction in the measured protein at the end of the drug treatment as compared to that at the beginning) indicating a net loss of cells following treatment ws calculated from [(Ti−Tz)/Tz]×100=−50. Values are calculated for each of these three parameters if the level of activity was reached; however, if the effect was not reached or was exceeded, the value for that parameter is expressed as greater or less than the maximum or minimum concentration tested.

Sequence of Aurora B kinase (Q96GD4 whole entry): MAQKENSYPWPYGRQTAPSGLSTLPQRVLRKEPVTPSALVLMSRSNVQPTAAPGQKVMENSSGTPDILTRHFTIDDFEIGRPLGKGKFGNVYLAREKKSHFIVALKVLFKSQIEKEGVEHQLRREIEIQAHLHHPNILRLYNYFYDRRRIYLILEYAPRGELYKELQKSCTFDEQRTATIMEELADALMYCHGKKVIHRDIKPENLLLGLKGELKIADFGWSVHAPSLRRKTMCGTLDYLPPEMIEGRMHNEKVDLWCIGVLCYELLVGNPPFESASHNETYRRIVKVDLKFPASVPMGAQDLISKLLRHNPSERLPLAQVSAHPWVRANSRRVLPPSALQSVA

| Structure (SMILES) | inhibition at 100 µM [1] | IC50 [2] | GI50 [3] |
| --- | --- | --- | --- |
| CCOC(=O)c1nc(Sc2ccc(NC(=O)C3CC3)cc2)nc(Nc2cc(C)[nH]n2)c1N [Compound 11, Ethyl 2-(4-cyclopropanecarboxamidophenylsulfanyl)-5-amino-6-(5-methylpyrazol-3-ylamino)-4-pyrimidinecarboxylate] | 100% | < 100 nM | 100 to 1000 nM |
| Cc1cc(Nc2nc(Sc3ccc(NC(=O)C4CC4)cc3)nc(C(=O)NCCN3CCOCC3)c2N)n[nH]1 [Compound 52, N-(2-Morpholin-4-ylethyl) 2-(4-cyclopropanecarboxamidophenylsulfanyl)-5-amino-6-(5-methylpyrazol-3-ylamino)-4-pyrimidinecarboxamide] | 100% | < 100 nM | 100 to 1000 nM |
| COCC(C)NC(=O)c1nc(Sc2ccc(NC(=O)C3CC3)cc2)nc(Nc2cc(C)[nH]n2)c1N (stereo not shown) [Compound 61, N-(2-Methoxy-1-methylethyl) 2-(4-cyclopropanecarboxamidophenylsulfanyl)-5-amino-6-(5-methylpyrazol-3-ylamino)-4-pyrimidinecarboxamide] | – | < 100 nM | 100 to 1000 nM |
| Cc1cc(Nc2nc(Sc3ccc(NC(=O)C4CC4)cc3)nc(C(=O)NC3CCCCC3)c2N)n[nH]1 [Compound 62, N-Cyclohexyl 2-(4-cyclopropanecarboxamidophenylsulfanyl)-5-amino-6-(5-methylpyrazol-3-ylamino)-4-pyrimidinecarboxamide] | – | 100 to 1000 nM | 1000 to 10000 nM |
| Cc1cc(Nc2nc(Sc3ccc(NC(=O)C4CC4)cc3)nc(C(=O)NC3CCOCC3)c2N)n[nH]1 [Compound 63, N-Tetrahydro-2H-pyran-4-yl 2-(4-cyclopropanecarboxamidophenylsulfanyl)-5-amino-6-(5-methylpyrazol-3-ylamino)-4-pyrimidinecarboxamide] | – | < 100 nM | 100 to 1000 nM |
| Cc1cc(Nc2nc(Sc3ccc(NC(=O)C4CC4)cc3)nc(C(=O)NC3CCN(C)CC3)c2N)n[nH]1 [Compound 64, N-(1-Methylpiperidin-4-yl) 2-(4-cyclopropanecarboxamidophenylsulfanyl)-5-amino-6-(5-methylpyrazol-3-ylamino)-4-pyrimidinecarboxamide] | – | < 100 nM | 100 to 1000 nM |
| Cc1cc(Nc2nc(Sc3ccc(NC(=O)C4CC4)cc3)nc(C(=O)NCC(F)(F)F)c2N)n[nH]1 [Compound 65, N-(2,2,2-Trifluoroethyl) 2-(4-cyclopropanecarboxamidophenylsulfanyl)-5-amino-6-(5-methylpyrazol-3-ylamino)-4-pyrimidinecarboxamide] | – | < 100 nM | 100 to 1000 nM |
| Cc1cc(Nc2nc(Sc3ccc(NC(=O)C4CC4)cc3)nc(C(=O)OCc3ccccc3)c2N)n[nH]1 [Compound 66, Benzyl 2-(4-cyclopropanecarboxamidophenylsulfanyl)-5-amino-6-(5-methylpyrazol-3-ylamino)-4-pyrimidinecarboxylate] | – | < 100 nM | 100 to 1000 nM |
| Cc1cc(Nc2nc(Sc3ccc(NC(=O)C4CC4)cc3)nc(C(=O)OCC[Si](C)(C)C)c2N)n[nH]1 [Compound 67] | – | 100 to 1000 nM | 1000 to 10000 nM |
| Cc1cc(Nc2nc(Sc3ccc(NC(=O)C4CC4)cc3)nc(C(=O)N3CCN(C)CC3)c2N)n[nH]1 [Compound 68] | – | 1000 to 10000 nM | 1000 to 10000 nM |
